Experimental data: PubChem BioAssay (NCI)
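Tested at 5 concentrations; 48 h exposure; 96-well plates; endpoints linearly interpolated, else capped at highest concentration. At the GI50, growth is halved. At the TGI there is no net growth.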

Assays:
Assay in all cases: DTP human tumour cell line panel, 48 h
[1] = tested on: CAKI-1 renal
[2] = tested on: SN12C renal
[3] = tested on: PC-3 prostate
[4] = tested on: MDA-MB-468 breast
[5] = tested on: SK-MEL-28 melanoma
[6] = tested on: SR leukemia
[7] = tested on: HOP-92 NSCLC
[8] = tested on: NCI-H460 lung
[9] = tested on: SF-268 CNS
[10] = tested on: HL-60(TB) leukemia
[11] = tested on: K-562 leukemia
[12] = tested on: OVCAR-5 ovarian
[13] = tested on: COLO 205 colon
[14] = tested on: OVCAR-4 ovarian
[15] = tested on: SF-539 CNS
[16] = tested on: SK-MEL-2 melanoma
[17] = tested on: NCI-H23 lung
[18] = tested on: SK-OV-3 ovarian
[19] = tested on: BT-549 breast
[20] = tested on: TK-10 renal
[21] = tested on: ACHN renal
[22] = tested on: MOLT-4 leukemia
[23] = tested on: LOX IMVI melanoma
[24] = tested on: HCC-2998 colon
[25] = tested on: 786-0 renal
[26] = tested on: MDA-MB-231 breast
[27] = tested on: MALME-3M melanoma
[28] = tested on: MCF7 breast
[29] = tested on: NCI-H226 lung
[30] = tested on: MDA-MB-435
[31] = tested on: UACC-257 melanoma
[32] = tested on: RPMI-8226 leukemia
[33] = tested on: EKVX NSCLC
[34] = tested on: A498 renal
[35] = tested on: HS 578T breast
[36] = tested on: KM12 colon
[37] = tested on: SNB-19 CNS
[38] = tested on: NCI/ADR-RES ovarian
[39] = tested on: UACC-62 melanoma
[40] = tested on: HT29 colon
[41] = tested on: A549 NSCLC
[42] = tested on: HCT-15 colon
[43] = tested on: SW-620 colon
[44] = tested on: M14 melanoma
[45] = tested on: NCI-H522 lung
[46] = tested on: UO-31 renal
[47] = tested on: SF-295 CNS
[48] = tested on: HOP-62 NSCLC
[49] = tested on: OVCAR-3 ovarian
[50] = tested on: CCRF-CEM leukemia
[51] = tested on: SNB-75 CNS
[52] = tested on: HCT-116 colon
[53] = tested on: OVCAR-8 ovarian
[54] = tested on: SK-MEL-5 melanoma
[55] = tested on: U251 CNS
[56] = tested on: IGROV1 ovarian
[57] = tested on: DU-145 prostate

## Cn1cc(-c2nc(N)nnc2-c2c[nH]c3ccccc23)c2cc(Br)cnc21
[1]
  GI50: 53.5 nM
  TGI: 17100 nM
[2]
  GI50: 58.9 nM
  TGI: 14300 nM
[3]
  GI50: 56 nM
  TGI: 47900 nM
[4]
  GI50: 20 nM
  TGI: 51.8 nM
[5]
  GI50: 364 nM
  TGI: 19200 nM
[6]
  GI50: 30.9 nM
  TGI: > 100000 nM
[7]
  GI50: 3890 nM
  TGI: 25500 nM
[8]
  GI50: 46.2 nM
  TGI: 1350 nM
[9]
  GI50: 340 nM
  TGI: 25500 nM
[10]
  GI50: 26.5 nM
  TGI: 100 nM
[11]
  GI50: 35.7 nM
  TGI: > 100000 nM
[12]
  GI50: 72.9 nM
  TGI: 15500 nM
[13]
  GI50: 41.4 nM
  TGI: 280 nM
[14]
  GI50: 2700 nM
  TGI: 36800 nM
[15]
  GI50: 32.3 nM
  TGI: 175 nM
[16]
  GI50: 40.9 nM
  TGI: 14300 nM
[17]
  GI50: 73.8 nM
  TGI: 10400 nM
[18]
  GI50: 48.7 nM
  TGI: 21200 nM
[19]
  GI50: 29 nM
  TGI: 5670 nM
[20]
  GI50: 5950 nM
  TGI: 34200 nM
[21]
  GI50: 74.3 nM
  TGI: 16900 nM
[22]
  GI50: 50.5 nM
  TGI: 19200 nM
[23]
  GI50: 43.5 nM
  TGI: 15800 nM
[24]
  GI50: 84.1 nM
  TGI: 3470 nM
[25]
  GI50: 53.7 nM
  TGI: 15600 nM
[26]
  GI50: 69.7 nM
  TGI: 11700 nM
[27]
  GI50: 46.6 nM
  TGI: 18500 nM
[28]
  GI50: 27.5 nM
  TGI: 10600 nM
[29]
  GI50: 50.9 nM
  TGI: 2700 nM
[30]
  GI50: 16.7 nM
  TGI: 52.5 nM
[31]
  GI50: 42.1 nM
  TGI: 21800 nM
[32]
  GI50: 70.8 nM
  TGI: > 45500 nM
[33]
  GI50: 94.9 nM
  TGI: 20700 nM
[34]
  GI50: 15600 nM
  TGI: 29700 nM
[35]
  GI50: 31.9 nM
  TGI: 33700 nM
[36]
  GI50: 50.6 nM
  TGI: 13900 nM
[37]
  GI50: 63.2 nM
  TGI: 10400 nM
[38]
  GI50: 92.4 nM
  TGI: 776 nM
[39]
  GI50: 29.4 nM
  TGI: 7680 nM
[40]
  GI50: 34.7 nM
  TGI: 1230 nM
[41]
  GI50: 62.5 nM
  TGI: 19300 nM
[42]
  GI50: 37.6 nM
  TGI: 10700 nM
[43]
  GI50: 37.6 nM
  TGI: 13200 nM
[44]
  GI50: 52.6 nM
  TGI: 2060 nM
[45]
  GI50: 12.5 nM
  TGI: 79.7 nM
[46]
  GI50: 71.1 nM
  TGI: 15200 nM
[47]
  GI50: 29.4 nM
  TGI: 1190 nM
[48]
  GI50: 56.4 nM
  TGI: 21200 nM
[49]
  GI50: 39 nM
  TGI: 692 nM
[50]
  GI50: 33.4 nM
  TGI: > 35500 nM
[51]
  GI50: 30.2 nM
  TGI: 18300 nM
[52]
  GI50: 44.1 nM
  TGI: 6510 nM
[53]
  GI50: 63.4 nM
  TGI: 4700 nM
[54]
  GI50: 30.1 nM
  TGI: 1190 nM
[55]
  GI50: 40.2 nM
  TGI: 6710 nM
[56]
  GI50: 72.1 nM
  TGI: 15200 nM
[57]
  GI50: 87.7 nM
  TGI: 22400 nM
